“And” between values parts separate entries of the source, which are not always exact repeats. Equal values may be shown once.
Tests used:
[1] = molecular target: T1, Ba/F3 cell EGFR Exon20 ins NPH (Homo sapiens, UniProt P00533, INS773NPH); experiment: Ba/F3 cell proliferation suppression, EGFR Exon20 ins NPH; type: cell-based; details: for Ba/F3 (NPH) Activity: GI50 class, Ba/F3 cell line with NPH inserted at Exon20 of EGFR, 72 hours; for GI50: 72 hours after treatment, CellTiter-Glo
T1 construct: expressed in transfected cells; host or cells: Ba/F3
Method in brief: (§1)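 Cells were seeded 24 h before dosing and then treated for 72 hours with compound at final concentrations of 0.3 nM to 50 um. Live cells were measured by CellTiter-Glo luminescence, and GI50 values were derived from growth ratio relative to control across three repeats.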

PC9GR = experiment: Lung cancer cell proliferation suppression, PC9GR; type: cell-based; details: 72 hours after treatment, CellTiter-Glo
Method: (§2) The following experiment was carried out to evaluate the suppression activity of the compounds according to the present invention against proliferation of Ba/F3 and lung cancer cells which express EGFR mutations.
(§3) Of the cancer cell lines expressing the EGFR gene, A549 was cultured after adding 10% FBS (HyClone) to DMEM (Invitrogen), and RPMI-1640 (Invitrogen) with 10% FBS was used for the other cancer cells. For the Ba/F3 cells, RPMI-1640 with 10% FBS and 5 ng/ml IL-3 (R&D Systems) was used. The transduced Ba/F3 cells were cultured by adding 1 ug/ml puromycin (Invitrogen) to the same medium.
(§4) 24 hours before treatment with the compounds, 3000 to 5000 cells were distributed into each well of a white clear bottom 96 well plate (Corning). The compounds were diluted in dimethylsulfoxide (dilution ratio 3:1; 12 concentrations total) and injected 0.5 ul each for a final concentration of 0.3 nM to 50 um. As for measurement of live cells, 72 hours after treatment with the compounds, a CellTiter-Glo luminescent cell-viability reagent (Promega) was used to store the cells at room temperature for 10 minutes, followed by measurement of luminescence using a reader (SynergyNeo, Biotek). Each test was repeated three times.
(§5) The result was calculated as a cell growth ratio (%) compared to a control. The program GraphPad Prism version 5.0 was used to draw the graphs and calculate the GI50 values.

H1975 = experiment: Lung cancer cell proliferation suppression, H1975; type: cell-based; details: Homo sapiens, NCI-H1975; 72 hours after treatment, CellTiter-Glo
Method: as §2, §3, §4, §5

PC9 = experiment: Lung cancer cell proliferation suppression, PC9; type: cell-based; details: Homo sapiens, PC-9; 72 hours after treatment, CellTiter-Glo
Method: as §2, §3, §4, §5

[2] = Cancer cell proliferation suppression, A549; type: cell-based; details: A459; 72 hours after treatment, CellTiter-Glo
Method: as §2, §3, §4, §5

[3] = molecular target: T2, Ba/F3 cell EGFR L858R/T790M (Homo sapiens, UniProt P00533, L858R/T790M); experiment: Ba/F3 cell proliferation suppression, EGFR L858R/T790M; type: cell-based; details: 72 hours after treatment, CellTiter-Glo
T2 construct: expressed in transfected cells; host or cells: Ba/F3
Method in brief: as §1

[4] = system: Ba/F3 cell EGFR Del19/T790M; experiment: Ba/F3 cell proliferation suppression, EGFR Del19/T790M; type: cell-based; details: 72 hours after treatment, CellTiter-Glo
Method: as §2, §3, §4, §5

[5] = molecular target: T3, Ba/F3 cell EGFR Exon20 ins SVD (Homo sapiens, UniProt P00533, INS770SVD); experiment: Ba/F3 cell proliferation suppression, EGFR Exon20 ins SVD; type: cell-based; details: 72 hours after treatment, CellTiter-Glo
T3 construct: expressed in transfected cells; host or cells: Ba/F3
Method: as §2, §3, §4, §5

[6] = molecular target: T4, Ba/F3 cell EGFR Exon20 ins FQEA (Homo sapiens, UniProt P00533, INS763FQEA); experiment: Ba/F3 cell proliferation suppression, EGFR Exon20 ins FQEA; type: cell-based; details: 72 hours after treatment, CellTiter-Glo
T4 construct: expressed in transfected cells; host or cells: Ba/F3
Method: as §2, §3, §4, §5

[7] = system: Ba/F3 cell EGFR Exon20 ins H; experiment: Ba/F3 cell proliferation suppression, EGFR Exon20 ins H; type: cell-based; details: 72 hours after treatment, CellTiter-Glo
Method: as §2, §3, §4, §5

[8] = molecular target: T5, Ba/F3 cell EGFR Exon20 ins ASV (Homo sapiens, UniProt P00533, INS769ASV); experiment: Ba/F3 cell proliferation suppression, EGFR Exon20 ins ASV; type: cell-based; details: 72 hours after treatment, CellTiter-Glo
T5 construct: expressed in transfected cells; host or cells: Ba/F3
Method: as §2, §3, §4, §5

[9] = molecular target: T6, Ba/F3 cell HER2 Exon20 ins YVMA (Homo sapiens, UniProt P04626, INS775YVMA); experiment: Ba/F3 cell proliferation suppression, HER2 Exon20 ins YVMA; type: cell-based; details: 72 hours after treatment, CellTiter-Glo
T6 construct: expressed in transfected cells; host or cells: Ba/F3
T6 sequence (P04626 with tags, fused parts or gaps INS775YVMA): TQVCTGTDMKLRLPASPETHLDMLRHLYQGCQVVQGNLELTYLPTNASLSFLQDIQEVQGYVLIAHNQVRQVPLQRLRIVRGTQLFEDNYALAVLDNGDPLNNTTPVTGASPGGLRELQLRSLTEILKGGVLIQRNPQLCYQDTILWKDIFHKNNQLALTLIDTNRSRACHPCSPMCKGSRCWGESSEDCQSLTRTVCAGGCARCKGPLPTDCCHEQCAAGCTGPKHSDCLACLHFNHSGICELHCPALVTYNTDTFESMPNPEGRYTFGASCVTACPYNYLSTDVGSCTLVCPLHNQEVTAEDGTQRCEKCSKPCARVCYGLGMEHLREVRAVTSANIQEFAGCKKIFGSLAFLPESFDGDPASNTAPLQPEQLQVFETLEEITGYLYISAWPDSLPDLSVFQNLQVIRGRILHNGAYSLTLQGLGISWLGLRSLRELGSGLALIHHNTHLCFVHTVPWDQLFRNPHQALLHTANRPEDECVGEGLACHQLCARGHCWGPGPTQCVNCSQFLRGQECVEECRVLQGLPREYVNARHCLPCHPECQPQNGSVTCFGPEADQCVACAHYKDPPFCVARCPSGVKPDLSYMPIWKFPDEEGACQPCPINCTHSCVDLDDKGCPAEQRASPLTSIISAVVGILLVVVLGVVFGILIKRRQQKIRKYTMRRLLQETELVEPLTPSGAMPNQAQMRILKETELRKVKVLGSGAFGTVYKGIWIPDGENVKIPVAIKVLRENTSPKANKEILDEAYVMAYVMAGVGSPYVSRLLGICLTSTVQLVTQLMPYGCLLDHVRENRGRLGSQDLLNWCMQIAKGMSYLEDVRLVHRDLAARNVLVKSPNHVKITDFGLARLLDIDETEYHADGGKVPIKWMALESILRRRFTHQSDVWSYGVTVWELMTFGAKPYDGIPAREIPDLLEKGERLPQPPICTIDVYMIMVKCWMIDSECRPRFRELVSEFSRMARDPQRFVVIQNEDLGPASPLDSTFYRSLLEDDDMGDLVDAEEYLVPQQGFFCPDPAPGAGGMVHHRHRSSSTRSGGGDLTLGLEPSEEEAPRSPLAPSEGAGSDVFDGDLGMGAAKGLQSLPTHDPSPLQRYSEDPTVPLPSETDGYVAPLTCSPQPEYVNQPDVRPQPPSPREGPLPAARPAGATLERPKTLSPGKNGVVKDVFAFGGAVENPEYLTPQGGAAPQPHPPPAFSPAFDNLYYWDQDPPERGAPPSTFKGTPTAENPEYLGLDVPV
Method: as §2, §3, §4, §5

Ba/F3 cell naive = experiment: Ba/F3 cell proliferation suppression, naive; type: cell-based; details: Mus musculus, BaF3; 72 hours after treatment, CellTiter-Glo
Method in brief: as §1

Ba/F3 cell EGFR L858R = molecular target: T7, Ba/F3 cell EGFR L858R (Homo sapiens, UniProt P00533, L858R); experiment: Ba/F3 cell proliferation suppression, EGFR L858R; type: cell-based; details: 72 hours after treatment, CellTiter-Glo
T7 construct: expressed in transfected cells; host or cells: Ba/F3
Method: as §2, §3, §4, §5

[10] = system: scanMAX kinase panel (EGFR mutant, ERBB2, ERBB4); experiment: DiscoverX (eurofin) KINOMEscan (scanMAX platform) kinase profiling; type: binding; details: for suppression activity against the EGFR mutant and ERBB2 and ERBB4: KINOMEscan scanMAX kinase profiling
From the text: It was confirmed that the above example compounds had high selectivity against EGFR series genes. Accordingly, these can be useful in the treating of cancers wherein this kinase is expressed. In particular, as they have substantially outstanding lung cancer cell line proliferation suppression, they can be useful in the treatment of lung cancer, breast cancer, and brain cancer.

Compound | Ba/F3 (NPH) Activity [1] | GI50 (PC9GR) [nM] | GI50 (H1975) [nM] | GI50 (PC9) [nM] | GI50 [2] [nM] | GI50 [3] [µM] | GI50 [4] [µM] | GI50 [1] [µM] | GI50 [5] [µM] | GI50 [6] [µM] | GI50 [8] [µM] | GI50 [9] [µM] | GI50 (Ba/F3 cell naive) [µM] | GI50 (Ba/F3 cell EGFR L858R) [µM] | % inhibition of scanMAX Kinase profiling ([10]; EGFR(E746-A750del)) | % inhibition of scanMAX Kinase profiling ([10]; EGFR(G719C)) [%] | % inhibition of scanMAX Kinase profiling ([10]; EGFR(G719S)) | % inhibition of scanMAX Kinase profiling ([10]; EGFR(L747-E749del, A750P)) | % inhibition of scanMAX Kinase profiling ([10]; EGFR(L747-T751del.Sins)) | % inhibition of scanMAX Kinase profiling ([10]; EGFR(L858R.T790M)) | other results
C=CC(=O)Nc1cc(Nc2cc(N3OCC[C@@H]3c3ccccc3)ncn2)c(OC)cc1N1CCC(N2CCOCC2)CC1 [Example 11, N-(4-methoxy-2-(4-morpholinopiperidine-1-yl)-5-((6-((R)-3-phenylisoxazolidine-2-yl)pyrimidine-4-yl)amino)phenyl) acrylamide] | A (GI50 < 50 nM) | 7 | 9 | 2 | > 15000 |  |  |  |  |  |  |  |  |  |  |  |  |  |  |  | 
O=C(Nc1cnn2ccc(N3CCC[C@@H]3c3cc(F)ccc3F)nc12)N1CC[C@H](O)C1 [Larotrectinib] |  | 14 | 24 | 5 | 4820 |  |  |  |  |  |  |  |  |  |  |  |  |  |  |  | 
C=CC(=O)N1CCC(Oc2cc3c(Nc4ccc(Cl)c(Cl)c4F)ncnc3cc2OC)CC1 [Poziotinib] |  | 20 | 34 | 1 | > 15000 |  |  |  |  |  |  |  |  |  |  |  |  |  |  |  | 
C=CC(=O)Nc1cc(Nc2cc(N3OCC[C@H]3c3ccccc3)ncn2)c(OC)cc1N1CCN(C)CC1 [Example 3, N-(4-methoxy-2-(4-methylpiperazine-1-yl)-5-((6((S)-3-phenylisoxazolidine-2-yl)pyrimidine-4-yl)amino)phenyl) acrylamide] | B (50 nM ≤ GI50 < 500 nM) |  |  |  |  | 0.5 to 5 | 0.05 to 0.5 | 0.05 to 0.5 | 0.05 to 0.5 | < 0.05 | 0.05 to 0.5 | 0.05 to 0.5 | ≥ 5 |  |  |  |  |  |  |  | GI50 [7]: 0.5 to 5 µM
C=CC(=O)Nc1cc(Nc2cc(N3OCC[C@@H]3c3cc(F)cc(F)c3)ncn2)c(OC)cc1N1CCC(N2CCN(CC)CC2)CC1 [Example 236, N-(5-((6-((R)-3-(3,5-difluorophenyl)isoxazolidine-2-yl)pyrimidine-4-yl)amino)-2-(4-(4-ethylpiperazine-1-yl)piperidine-1-yl)-4-methoxyphenyl) acrylamide] | A (GI50 < 50 nM) | 7 | 1 | 1 |  | < 0.05 | < 0.05 | < 0.05 | < 0.05 | < 0.05 | < 0.05 | < 0.05 | 0.5 to 5 | < 0.05 | 89% | 100 | 100% | 98% | 100% | 98% | % inhibition of scanMAX Kinase profiling ([10]; EGFR(L858R)): 100%; % inhibition of scanMAX Kinase profiling ([10]; EGFR(L861q)): 98%; % inhibition of scanMAX Kinase profiling ([10]; EGFR(S752-I759del)): 89%; % inhibition of scanMAX Kinase profiling ([10]; EGFR(T790M)): 100%; % inhibition of scanMAX Kinase profiling ([10]; ERBB2): 100%; % inhibition of scanMAX Kinase profiling ([10]; ERBB4): 100%; suppression activity against the EGFR mutant and ERBB2 and ERBB4 [10]: high suppression activity
C=CC(=O)Nc1cc(Nc2nccc(-c3cn(C)c4ccccc34)n2)c(OC)cc1N(C)CCN(C)C [Osimertinib] |  | 16 | 36 | 7 | 2410 |  |  |  |  |  |  |  |  |  |  |  |  |  |  |  | 
C=CC(=O)Nc1cc(Nc2cc(N3OCC[C@@H]3c3cc(F)cc(F)c3)ncn2)c(OC)cc1N1CCC(N(C)C)CC1 [Example 241, N-(5-((6-((R)-3-(3,5-difluorophenyl)isoxazolidine-2-yl)pyrimidine-4-yl)amino)-2-(4-(dimethylamino)piperidine-1-yl)-4-methoxyphenyl) acrylamide] | A (GI50 < 50 nM) | 12 | 1 | 1 |  | < 0.05 | < 0.05 | < 0.05 | < 0.05 | < 0.05 | < 0.05 | < 0.05 | 0.5 to 5 | < 0.05 | 50% and 100% | 100 | 100% and 99% | 99% and 98% | 100% and 96% | 96% and 98% | % inhibition of scanMAX Kinase profiling ([10]; EGFR(L861q)): 100% and 98%; % inhibition of scanMAX Kinase profiling ([10]; EGFR(S752-I759del)): 100% and 95%; % inhibition of scanMAX Kinase profiling ([10]; EGFR(T790M)): 100%; % inhibition of scanMAX Kinase profiling ([10]; ERBB2): 100%; % inhibition of scanMAX Kinase profiling ([10]; ERBB4): 100% and 94%; suppression activity against the EGFR mutant and ERBB2 and ERBB4 [10]: high suppression activity
C=CC(=O)Nc1cc(Nc2cc(N3OCC[C@@H]3c3cc(F)cc(F)c3)ncn2)c(OC)cc1N1CCC(N2C[C@H]3C[C@@H]2CO3)CC1 [Example 238, N-(2-(4-((1R,4R)-2-oxa-5-azabicyclo[2.2.1]heptane-5-yl)piperidine-1-yl)-5-((6-((R)-3-(3,5-difluorophenyl)isoxazolidine-2-yl)pyrimidine-4-yl)amino)-4-methoxyphenyl) acrylamide] | A (GI50 < 50 nM) | 4 | 1 | 1 |  | < 0.05 | < 0.05 | < 0.05 | < 0.05 | < 0.05 | < 0.05 | < 0.05 | 0.5 to 5 | < 0.05 | 100% | 100 | 100% | 91% | 92% | 98% | % inhibition of scanMAX Kinase profiling ([10]; EGFR(L858R)): 99%; % inhibition of scanMAX Kinase profiling ([10]; EGFR(L861q)): 98%; % inhibition of scanMAX Kinase profiling ([10]; EGFR(S752-I759del)): 91%; % inhibition of scanMAX Kinase profiling ([10]; EGFR(T790M)): 100%; % inhibition of scanMAX Kinase profiling ([10]; ERBB2): 100%; % inhibition of scanMAX Kinase profiling ([10]; ERBB4): 100%; suppression activity against the EGFR mutant and ERBB2 and ERBB4 [10]: high suppression activity

— patent US12157730B2, “Heteroaryl derivative, method for producing same, and pharmaceutical composition comprising same as effective component” (VORONOI INC., priority 2019, dated 2024)
